Source: patent publication US20260258084A1, “New Peptides as Selective IL-23 Receptor Antagonists” (Sanofi, priority 2022, published 2026)
Starred links: 1 amine or outer side, 2 acyl side, 3 side chain; linkers in the order of their positions; H or OH if unused. Positions of bridges follow the written chain, without caps; N, C: chain ends. Non-standard residues stand in square brackets, D forms with d. Residues, ends and D or L forms follow the SMILES beside them. *: point of attachment. X3 = CN(CCCCC(=O)N[C@@H](CS[*:2])C(=O)[*:1])[*:3]; Trp(7-Me) = Cc1cccc2c(C[C@H](N)C(=O)O)c[nH]c12; X1 = O=C(CCCCN[*:3])N[C@@H](CS[*:2])C(=O)[*:1]; αMeLys(Me2) = CN(C)CCCC[C@](C)(N)C(=O)O; X2 = CN(C)[C@@H](CCCCN[*:1])C(=O)[*:2]; 2Nal = N[C@@H](Cc1ccc2ccccc2c1)C(=O)O; AEF = NCCOc1ccc(C[C@H](N)C(=O)O)cc1; 3Pal = N[C@@H](Cc1cccnc1)C(=O)O; X4 = CN(CCCCCC(=O)[*:2])[*:1]; αMeL = CC(C)C[C@](C)(N)C(=O)O; Suc = O=C(CCC(=O)[*:2])[*:1]; Thp = NC1(C(=O)O)CCOCC1; Me2NCH2CH2 = CN(C)CC*; Aib = CC(C)(N)C(=O)O; Ava = NCCCCC(=O)O; βAla = NCCC(=O)O; Sar = CNCC(=O)O

Test system: T1, Pepsin
T1 construct: purchased Merck Millipore
Experiment: Protease stability in simulated gastric fluid (Pepsin-SGF, FaSSGF)
Format: in vitro ADME
Details: simulated gastric fluid with pepsin (Pepsin-SGF), 60 min, 1 μM peptide, 37° C., read-out: FaSSGF 60 (min), remaining percent of peptide
How it was run: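 Peptides at 1 μM final in pepsin-containing SGF at 37° C, sampled at 0, 60, 120 and 240 min, quenched with ethanol (0.1% HCOOH). Analysed by LCMS/MS; percent remaining from peak area relative to time 0 (set to 100%).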

Row | SMILES | remaining at 1 h, 1 µM
1 | COc1ccc(C[C@@H]2NC(=O)[C@@H]3CSSC[C@H](NC(=O)CCCCNC(=O)CC[C@@H](C(=O)N[C@@H](CC(N)=O)C(=O)NCC(N)=O)NC(=O)C(C)(C)NC(=O)[C@H](Cc4ccc5ccccc5c4)NC2=O)C(=O)N[C@@H](CC(N)=O)C(=O)N[C@@H]([C@@H](C)O)C(=O)N[C@@H](Cc2c[nH]c4ccccc24)C(=O)N[C@@H](CCC(N)=O)C(=O)N3)cc1 [compound 4] ([Ava]CNTWQCY(Me)[2Nal][Aib]ENG-NH2; disulfide 2-7; lactam N-11) | 1%
2 | CC(=O)NCCCC[C@@H]1NC(=O)[C@H](Cc2c[nH]c3c(C)cccc23)NC(=O)[C@H]([C@@H](C)O)NC(=O)[C@H](CC(N)=O)NC(=O)[C@@H]2CSSC[C@H](NC1=O)C(=O)N[C@@H](Cc1ccc(OCCN(C)C)cc1)C(=O)N[C@@H](Cc1ccc3ccccc3c1)C(=O)NC1(CCOCC1)C(=O)N[C@H](C(=O)N[C@@H](CC(N)=O)C(=O)N[C@@H](Cc1c[nH]cn1)C(=O)NCCC(N)=O)CCC(=O)NCCCCC(=O)N2 [compound 49] ([Ava]CNT[Trp(7-Me)]K(Ac)CY(Me2NCH2CH2)[2Nal][Thp]ENH[βAla]-NH2; disulfide 2-7; lactam N-11) | 100%
3 | CC(=O)N[C@H]1CCCCNC(=O)[C@@H]2CSSC[C@H](NC(=O)[C@H](CCC(N)=O)NC(=O)[C@H](Cc3c[nH]c4ccccc34)NC1=O)C(=O)N[C@@H](Cc1ccc(OCCN)cc1)C(=O)N[C@@H](Cc1ccc3ccccc3c1)C(=O)NC1(CCOCC1)C(=O)N[C@H](C(=O)N[C@@H](CC(N)=O)C(=O)N[C@@H](CC(N)=O)C(N)=O)CCC(=O)N(C)CCCCC(=O)N2 [compound 13] (Ac-KWQC[AEF][2Nal][Thp]ENN-NH2; linker 1-4-8 via X3) | 73%
4 | CC(=O)NCCCC[C@@H]1NC(=O)[C@H](Cc2c[nH]c3c(C)cccc23)NC(=O)[C@H]([C@@H](C)O)NC(=O)[C@H](CC(N)=O)NC(=O)[C@@H]2CSSC[C@H](NC1=O)C(=O)N[C@@H](Cc1ccc(OCCN(C)C)cc1)C(=O)N[C@@H](Cc1ccc3ccccc3c1)C(=O)NC1(CCOCC1)C(=O)N[C@H](C(=O)N[C@@H](CC(N)=O)C(=O)N[C@@H](Cc1c[nH]cn1)C(=O)N(C)CC(N)=O)CCC(=O)NCCCCC(=O)N2 [compound 46] ([Ava]CNT[Trp(7-Me)]K(Ac)CY(Me2NCH2CH2)[2Nal][Thp]ENH[Sar]-NH2; disulfide 2-7; lactam N-11) | 100%
5 | CC(=O)NCCCC[C@@H]1NC(=O)[C@H](Cc2c[nH]c3ccccc23)NC(=O)[C@@H](N(C)C)CCCCNC(=O)[C@@H]2CSSC[C@H](NC1=O)C(=O)N[C@@H](Cc1ccc(OCCN(C)C)cc1)C(=O)N[C@@H](Cc1ccc3ccccc3c1)C(=O)N[C@@](C)(CCCCN(C)C)C(=O)N[C@H](C(=O)N[C@@H](CC(N)=O)C(=O)N[C@@H](Cc1cccnc1)C(=O)N(C)CC(N)=O)CCC(=O)NCCCCC(=O)N2 [compound 36] ([Ava]C[X2]WK(Ac)CY(Me2NCH2CH2)[2Nal][αMeLys(Me2)]EN[3Pal][Sar]-NH2; disulfide 2-6; lactam N-10) | 95%
6 | CC(=O)N[C@H]1CCCCNC(=O)[C@@H]2CSSC[C@H](NC(=O)[C@H](CCC(N)=O)NC(=O)[C@H](Cc3c[nH]c4ccccc34)NC1=O)C(=O)N[C@@H](Cc1ccc(OCCN)cc1)C(=O)N[C@@H](Cc1ccc3ccccc3c1)C(=O)N[C@@](C)(CC(C)C)C(=O)N[C@H](C(=O)N[C@@H](C)C(=O)N[C@H](CC(C)C)C(N)=O)CCC(=O)N(C)CCCCC(=O)N2 [compound 44] (Ac-KWQC[AEF][2Nal][αMeL]EA[dL]-NH2; linker 1-4-8 via X3) | 88%
7 | CC(=O)N[C@H]1CCCCNC(=O)[C@@H]2CSSC[C@H](NC(=O)[C@H](CCC(N)=O)NC(=O)[C@H](Cc3c[nH]c4ccccc34)NC1=O)C(=O)N[C@@H](Cc1ccc(OCCN)cc1)C(=O)N[C@@H](Cc1ccc3ccccc3c1)C(=O)NC(C)(C)C(=O)N[C@H](C(=O)N[C@@H](CC(N)=O)C(=O)NCC(N)=O)CCC(=O)N(C)CCCCC(=O)N2 [compound 15] (Ac-KWQC[AEF][2Nal][Aib]ENG-NH2; linker 1-4-8 via X3) | 30%
8 | CC(=O)N[C@H]1CCCCNC(=O)[C@@H]2CSSC[C@H](NC(=O)[C@H](CCC(N)=O)NC(=O)[C@H](Cc3c[nH]c4ccccc34)NC1=O)C(=O)N[C@@H](Cc1ccc(OCCN(C)C)cc1)C(=O)N[C@@H](Cc1ccc3ccccc3c1)C(=O)NC(C)(C)C(=O)N[C@H](C(=O)N[C@@H](C)C(=O)NCC(N)=O)CCC(=O)NCCCCC(=O)N2 [compound 32] (Ac-KWQCY(Me2NCH2CH2)[2Nal][Aib]EAG-NH2; linker 1-4-8 via X1) | 78%
9 | CC(=O)N[C@H]1CCCCNC(=O)[C@@H]2CSSC[C@H](NC(=O)[C@H](CCC(N)=O)NC(=O)[C@H](Cc3c[nH]c4ccccc34)NC1=O)C(=O)N[C@@H](Cc1ccc(OCCN)cc1)C(=O)N[C@@H](Cc1ccc3ccccc3c1)C(=O)NC(C)(C)C(=O)N[C@H](C(=O)N[C@@H](C)C(=O)N[C@H](CC(C)C)C(N)=O)CCC(=O)N(C)CCCCC(=O)N2 [compound 19] (Ac-KWQC[AEF][2Nal][Aib]EA[dL]-NH2; linker 1-4-8 via X3) | 79%
10 | Cc1cccc2c(C[C@@H]3NC(=O)[C@H]([C@@H](C)O)NC(=O)[C@H](CC(N)=O)NC(=O)[C@@H]4CSSC[C@H](NC(=O)[C@H](CC(C)C)NC3=O)C(=O)N[C@@H](Cc3ccc(OCCN(C)C)cc3)C(=O)N[C@@H](Cc3ccc5ccccc5c3)C(=O)NC3(CCOCC3)C(=O)N[C@H](C(=O)N[C@@H](CC(N)=O)C(=O)N[C@@H](Cc3cccnc3)C(=O)N(C)CC(N)=O)CCC(=O)NCCCCC(=O)N4)c[nH]c12 [compound 24] ([Ava]CNT[Trp(7-Me)]LCY(Me2NCH2CH2)[2Nal][Thp]EN[3Pal][Sar]-NH2; disulfide 2-7; lactam N-11) | 84%

Further lines, results first:

Row | remaining at 1 h, 1 µM | SMILES
11 | 12% | CC(C)C[C@@H](NC(=O)[C@H](CC(N)=O)NC(=O)[C@@H]1CC(=O)N(C)CCCCCC(=O)N[C@H]2CSSC[C@H](NC(=O)[C@H](CCC(N)=O)NC(=O)[C@H](Cc3c[nH]c4ccccc34)NC(=O)[C@H]([C@@H](C)O)NC(=O)[C@H](CC(N)=O)NC2=O)C(=O)N[C@@H](Cc2ccc(OCCN(C)C)cc2)C(=O)N[C@@H](Cc2ccc3ccccc3c2)C(=O)N[C@@](C)(CC(C)C)C(=O)N1)C(N)=O [compound 40] ([X4]CNTWQCY(Me2NCH2CH2)[2Nal][αMeL]DN[dL]-NH2; disulfide 2-7; lactam N-11)
12 | 94% | CC(=O)NCCCC[C@@H]1NC(=O)[C@H](Cc2c[nH]c3c(C)cccc23)NC(=O)[C@H]([C@@H](C)O)NC(=O)[C@H](CC(N)=O)NC(=O)[C@@H]2CSSC[C@H](NC1=O)C(=O)N[C@@H](Cc1ccc(OCCN(C)C)cc1)C(=O)N[C@@H](Cc1ccc3ccccc3c1)C(=O)NC1(CCOCC1)C(=O)N[C@H](C(=O)N[C@@H](CC(N)=O)C(=O)N[C@@H](Cc1cccnc1)C(N)=O)CCC(=O)NCCCCC(=O)N2 [compound 51] ([Ava]CNT[Trp(7-Me)]K(Ac)CY(Me2NCH2CH2)[2Nal][Thp]EN[3Pal]-NH2; disulfide 2-7; lactam N-11)
13 | 84% | CC(=O)N[C@H]1CCCCNC(=O)[C@@H]2CSSC[C@H](NC(=O)[C@H](CCC(N)=O)NC(=O)[C@H](Cc3c[nH]c4ccccc34)NC1=O)C(=O)N[C@@H](Cc1ccc(OCCN)cc1)C(=O)N[C@@H](Cc1ccc3ccccc3c1)C(=O)NC1(CCOCC1)C(=O)N[C@H](C(=O)N[C@@H](C)C(=O)N[C@H](CC(C)C)C(N)=O)CCC(=O)N(C)CCCCC(=O)N2 [compound 34] (Ac-KWQC[AEF][2Nal][Thp]EA[dL]-NH2; linker 1-4-8 via X3)
14 | 82% | CC(C)C[C@]1(C)NC(=O)[C@H](Cc2ccc3ccccc3c2)NC(=O)[C@H](Cc2ccc(OCCN(C)C)cc2)NC(=O)[C@@H]2CSSC[C@H](NC(=O)CCCCNC(=O)CC[C@@H](C(=O)N[C@@H](CC(N)=O)C(=O)N[C@@H](CC(N)=O)C(N)=O)NC1=O)C(=O)N[C@@H](CC(N)=O)C(=O)N[C@@H]([C@@H](C)O)C(=O)N[C@@H](Cc1c[nH]c3ccccc13)C(=O)N[C@@H](CCC(N)=O)C(=O)N2 [compound 27] ([Ava]CNTWQCY(Me2NCH2CH2)[2Nal][αMeL]ENN-NH2; disulfide 2-7; lactam N-11)
15 | 69% | CC(=O)NCCCC[C@@H]1NC(=O)[C@H](Cc2c[nH]c3c(C)cccc23)NC(=O)[C@H]([C@@H](C)O)NC(=O)[C@H](CC(N)=O)NC(=O)[C@@H]2CSSC[C@H](NC1=O)C(=O)N[C@@H](Cc1ccc(OCCN(C)C)cc1)C(=O)N[C@@H](Cc1ccc3ccccc3c1)C(=O)N[C@@](C)(CC(C)C)C(=O)N[C@H](C(=O)N[C@@H](CC(N)=O)C(=O)N[C@@H](Cc1c[nH]cn1)C(N)=O)CCCCNC(=O)CCC(=O)N2 [compound 23] (CNT[Trp(7-Me)]K(Ac)CY(Me2NCH2CH2)[2Nal][αMeL]KNH-NH2; disulfide 1-6; linker N-10 via Suc)
16 | 96% | CC(=O)NCCCC[C@@H]1NC(=O)[C@H](Cc2c[nH]c3c(C)cccc23)NC(=O)[C@H]([C@@H](C)O)NC(=O)[C@H](CC(N)=O)NC(=O)[C@@H]2CSSC[C@H](NC1=O)C(=O)N[C@@H](Cc1ccc(OCCN(C)C)cc1)C(=O)N[C@@H](Cc1ccc3ccccc3c1)C(=O)N[C@@](C)(CC(C)C)C(=O)N[C@H](C(=O)N[C@@H](CC(N)=O)C(=O)N[C@@H](Cc1c[nH]cn1)C(=O)N(C)CC(N)=O)CCC(=O)NCCCCC(=O)N2 [compound 47] ([Ava]CNT[Trp(7-Me)]K(Ac)CY(Me2NCH2CH2)[2Nal][αMeL]ENH[Sar]-NH2; disulfide 2-7; lactam N-11)
17 | 60% | CC(=O)N[C@H]1CCCCNC(=O)[C@@H]2CSSC[C@H](NC(=O)[C@H](CCC(N)=O)NC(=O)[C@H](Cc3c[nH]c4ccccc34)NC1=O)C(=O)N[C@@H](Cc1ccc(OCCN)cc1)C(=O)N[C@@H](Cc1ccc3ccccc3c1)C(=O)N[C@@](C)(CC(C)C)C(=O)N[C@H](C(=O)N[C@@H](C)C(=O)NCC(N)=O)CCC(=O)N(C)CCCCC(=O)N2 [compound 18] (Ac-KWQC[AEF][2Nal][αMeL]EAG-NH2; linker 1-4-8 via X3)
